Data: article PMC11763059, “GENI as an AMPK Activator Binds α and γ Subunits and Improves the Memory Dysfunction of Alzheimer’s Disease Mouse Models via Autophagy and Neuroprotection” (Antioxidants, 2025)

What was measured:
[1] = test system: AMPK; test: CETSA with cerebral cortex and hippocampus protein of mice; assay type: binding; conditions: cerebral cortex and hippocampus of mice brains
Protocol: In a 60 mm dish containing 5 mL of DMEM, 2 × 10^6 cells were added and incubated for 24 h. In each plate, 10 μM GENI was added and incubated for 2 h. Cells were harvested and heated at a temperature ranging from 60 °C to 80 °C for PC12 cell samples. We obtained a certain amount of cerebral cortex and hippocampus samples, which were added with PBS and ground. After centrifugation, the supernatant was used as a sample, and we measured the protein concentration with a BCA kit (CoWin Biotech Co., Ltd., Taizhou, Jiangsu, China). The protein of the cerebral cortex or hippocampus was incubated with 10 μM GENI at 37 °C for 2 h and heated from 65 °C to 100 °C for the cerebral cortex sample but 43 °C to 67 °C and 65 °C to 100 °C for the hippocampus sample. Equal volumes of supernatant heated at each temperature point for the control and treatment groups were used for Western blot analysis with the antibody for specific proteins.

[2] = test system: PC12 cells; test: MDA content assay in PC12 cells; assay type: cell-based; conditions: GENI 3 or 10 μM 24 h, 0.8 mM H2O2 1 h
Protocol: To determine ROS levels in PC12 cells, we seeded 5 × 10^4 PC12 cells in each well of a 24-well plate. Cells were treated with RES (10 μM) or GENI (1, 3, and 10 μM) for 24 h, followed by 0.8 mM H2O2 for 1 h. DCFH-DA (2,7-dichlorodihydrofluorescein diacetate, final concentration, 10 μM) was then added to each well and incubated for 30 min. Cells were washed with PBS to remove extracellular DCFH-DA, and intercellular ROS was detected by using a SpectraMax M3 multimode microplate reader (Molecular Devices Corporation, San Jose, CA, USA) at an excitation wavelength of 488 nm and an emission wavelength of 525 nm. Meanwhile, DCF in PC12 cells was observed using a fluorescence microscope (HCS, Thermo Fisher, Science, Waltham, MA, USA). To detect malondialdehyde (MDA) content and total SOD enzymatic activities in PC12 cells, we seeded 2 × 10^6 PC12 cells in 60 mm dishes containing 5 mL of DMEM and cultured the cells for 24 h. PC12 cells were treated with RES (10 μM) or GENI (3 or 10 μM) for 24 h and then treated with 0.8 mM H2O2 for 1 h to determine the MDA content and total superoxide dismutase (SOD) activities. Cells were lysed and centrifuged. […] MDA quantification and total SOD activities were determined using MDA and SOD enzyme activity assay kits (Nanjing Jiancheng Bioengineering Institute, Nanjing, China) following the manufacturer’s instructions.

[3] = test system: PC12 cells; test: Neuroprotection assay (MTT) on H2O2-damaged PC12 cells; assay type: cell-based; conditions: GENI 1, 3, or 10 μM 24 h, then 0.8 mM H2O2 1 h
Protocol: We seeded 5 × 10^4 PC12 cells in each well of a 24-well plate and incubated the cells for 24 h at 37 °C in 5% CO2. The medium was changed to 1 mL of serum-free Dulbecco’s modified Eagle’s medium (DMEM; Thermo Scientific, Shanghai, China) containing the different test samples. To determine the optimal concentration of hydrogen peroxide (H2O2), we treated cells with 0.5% dimethyl sulfoxide (DMSO) for 24 h and then incubated the cells with different concentrations of H2O2 for 1 h. In this work, 0.8 mM H2O2 was selected as the best dose for the following experiment. To study the neuroprotective effects of GENI, we treated PC12 cells with resveratrol (RES 10 μM) or GENI (1, 3, or 10 μM) for 24 h and 0.8 mM H2O2 for 1 h. The medium was changed to 500 μL of serum-free DMEM containing 200 μg/mL 3-(4,5-dimethyltaizol-2-yl)-2,5-diphenyltetrazolium bromide (MTT) and incubated for an additional 2 h. The medium was completely removed, and 200 μL of DMSO was added to each well to dissolve the formed formazan crystals. The resulting formazan was detected at 570 nm using a microplate reader (Bio-Tec Instruments Inc., Winooski, VT, USA).

[4] = test system: PC12 cells; test: RT-PCR analysis of gene expression in PC12 cells; assay type: cell-based, Rat; conditions: PC12 cells under H2O2 induction
Protocol: RT-PCR analysis was performed as described in the material and methods section in Supplementary Information.
Supplementary information […]
1.1. Real-time polymerase chain reaction (RT-PCR) analysis
PC12 cells (2 × 106) were seeded in 60 mm dishes and treated with RES (10 μM) or GENI (3 or 10μM) for 24h. Total RNA was extracted with TRIzol Reagent (Beijing Cowin Biotech Company, Beijing, China). RNA content was determined using an Eppendorf Biophotometer Plus (Eppendorf Company, Hamburg, Germany). Transcription was performed using 5 μg of total RNA, Oligo (dT)20 primer and reverse transcriptase (Beijing Cowin Biotech Company, Beijing, China). Transcript levels were quantified by real-time PCR (AB SCIEX, Massachusetts, USA) and SYBR Premix EX Taq™ (Takara, Otsu, Japan). Primers (Sangon Biotech Co. Ltd., Shanghai, China) used in this study are given in Supplementary Table S3. The thermocycling parameters for PC12 cells were as follows: SOD1 and SOD2: 95 ℃ for 2 min, then 40 cycles, 54 ℃ for 35 seconds; Bcl-x1 and Nrf2: 95 ℃ for 2 min, then 40 cycles, 95 ℃ for 15 seconds, 60 ℃ […]
for 15 seconds, 68 ℃ for 20 seconds. All results were normalized to GAPDH RNA levels, and relative mRNA transcript levels were calculated using the ΔΔCt formula. […]
For NO content evaluation, firstly, the NO assay kit was removed, and Griess Reagents I and II were warmed to room temperature. The standard substance was diluted with cell culture solution to 0, 1, 2, 5, 10, 20, 40, 60 and 100 μM. Secondly, 50 μL of standard reagent and the diluted sample were added into a 96-well plate. […]
For IL-6 content evaluation, we prepared samples, standards and biotinylated antibody working […]
15.625 and 0 pg/mL for use, and blank holes were set. The 100 μL sample or standard substance of different concentrations was added to the corresponding hole, and about 50 μL of biotinylated antibody working liquid was added to the sample and standard substance hole. The reaction hole was sealed with sealing plate adhesive paper. The working liquid of the enzyme conjugate was prepared 30 min in advance by incubating at room temperature with a 300 rpm micro-oscillator for 120 min. The sample was placed at room temperature away from light, and the board was washed five times after incubation. In addition to the blank holes, 100 μL of enzyme conjugate working liquid was added to each hole, and the reaction holes were sealed with plate adhesive paper. The board was incubated at room temperature with a 300 rpm micro-oscillator for 60 min and then washed five times. […] About 100 μL of termination solution was added to each hole, and we measured the OD450 value immediately after mixing with a microplate reader (BioTek, California, USA).

Structure (SMILES): CC(C)CCOC(=O)C1=CO[C@@H](O[C@@H]2O[C@H](CO)[C@@H](O)[C@H](O)[C@H]2O)C2C(CO)=CCC12 (stereo partly shown) [GENI, Geniposidic 4-isoamyl ester]
- stability of AMPK proteins (CETSA) [1]: enhanced the stability
- H2O2-induced increase in MDA [2]: significantly reduce
- survival rate of PC12 cells induced by H2O2 [3]: significantly improve
- abundance of Bcl-x1 mRNA [4]: significantly increased
- abundance of Nrf2 mRNA [4]: significantly increased
- gene expression of SOD1 ([4]; GENI 3 or 10 μM 24 h): increased
- gene expression of SOD2 ([4]; GENI 3 or 10 μM 24 h): increased
